The structures appear in SMILES notation.

This test concerns Nrf2 transcriptional activity (pARE-Luc reporter) in HepG2 cells. Nature of the test: In vitro Nrf2 transcriptional activity measurement by ARE-dependent reporter assay in HepG2 cell. The class given is cell-based, human. Conditions: Homo sapiens; HepG2 cells transfected with pARE-Luc, 4 hours at 37° C.; luciferase activity of Example 1-54 or Example 17-23 at 3.75 μM defined as 100%. An outline of the steps: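 HepG2 cells transfected with pGL4.37 (pARE-Luc), replated onto compound and incubated 4 h at 37° C; luciferase read by Bright-Glo luminescence. Response normalized to 100% set by a reference compound at 3.75 μM; EC50 from dose-response curve.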
On the technique in general: A reporter such as luciferase makes a cellular process visible.
As usually defined, the EC50 is the concentration that produces a half-maximal response. The low end stands for a more potent agent, the high end for a less potent agent. In turn, `CC(C)(O)CN1CCN(c2cc(Cl)c(C(=O)N3COc4c(cccc4-c4ccc(C(=O)O)c(N5CCOCC5)c4)C3)c(Cl)c2)CC1` [Compound 1-62, 4-[3-[2,6-Dichloro-4-[4-(2-hydroxy-2-methylpropyl)piperazin-1-yl)benzoyl]-2,4-dihydro-1,3-benzoxazin-8-yl]-2-morpholin-4-ylbenzoic acid] came in with an EC50 of 3.2 nM.

In the case of `CN1CCC(N2CCN(c3cc(Cl)c(C(=O)N4COc5c(cccc5-c5ccc(C(=O)O)c(N6CCOCC6)c5)C4)c(Cl)c3)CC2)CC1` [Compound 1-63, 4-[3-[2,6-Dichloro-4-[4-(1-methylpiperidin-4-yl)piperazin-1-yl]benzoyl]-2,4-dihydro-1,3-benzoxazin-8-yl]-2-morpholin-4-ylbenzoic acid], the half-maximal effective concentration (EC50) is 2.1 nM. With `CN1CCN(c2cc(Cl)c(C(=O)N3COc4c(cccc4-c4ccc(C(=O)O)c(N5CCOCC5)c4)C3)c(Cl)c2)CC1` [Compound 1-64, 4-[3-[2,6-Dichloro-4-(4-methylpiperazin-1-yl)benzoyl]-2,4-dihydro-1,3-benzoxazin-8-yl]-2-morpholin-4-ylbenzoic acid] the figure was 3 nM. The compound `O=C(O)c1ccc(-c2cccc3c2OCN(C(=O)c2c(Cl)cc(N4CCC(N5CCOCC5)CC4)cc2Cl)C3)cc1N1CCOCC1` [Compound 1-65, 4-[3-[2,6-Dichloro-4-(4-morpholin-4-ylpiperidin-1-yl)benzoyl]-2,4-dihydro-1,3-benzoxazin-8-yl]-2-morpholin-4-ylbenzoic acid] showed an EC50 of 3.7 nM. The compound `O=C(O)c1ccc(-c2cccc3c2OCN(C(=O)c2c(Cl)cc(N4CCN(C5COC5)CC4)cc2Cl)C3)cc1N1CCOCC1` [Compound 1-66, 4-[3-[2,6-Dichloro-4-[4-(oxetan-3-yl)piperazin-1-yl]benzoyl]-2,4-dihydro-1,3-benzoxazin-8-yl]-2-morpholin-4-ylbenzoic acid] returned a half-maximal effective concentration (EC50) of 2.7 nM. In the case of `CC(C)N1CCN(c2cc(Cl)c(C(=O)N3COc4c(cccc4-c4ccc(C(=O)O)c(N5CCOCC5)c4)C3)c(Cl)c2)CC1` [Compound 1-67, 4-[3-[2,6-Dichloro-4-(4-propan-2-ylpiperazin-1-yl)benzoyl]-2,4-dihydro-1,3-benzoxazin-8-yl]-2-morpholin-4-ylbenzoic acid], the EC50 came out at 4.4 nM. On to `CN1CCN(c2cc(Cl)c(C(=O)N3CSc4c(cccc4-c4cc(N5CCOCC5)c(C(=O)O)cc4F)C3)c(Cl)c2)CC1` [Compound 1-68, 4-[3-[2,6-Dichloro-4-(4-methylpiperazin-1-yl)benzoyl]-2,4-dihydro-1,3-benzothiazin-8-yl]-5-fluoro-2-morpholin-4-ylbenzoic acid], for which the EC50 worked out at 8.1 nM.

`COCCN1CCN(c2cc(Cl)c(C(=O)N3CSc4c(cccc4-c4cc(N5CCOCC5)c(C(=O)O)cc4F)C3)c(Cl)c2)CC1` [Compound 1-69, 4-[3-[2,6-Dichloro-4-[4-(2-methoxyethyl)piperazin-1-yl]benzoyl]-2,4-dihydro-1,3-benzothiazin-8-yl]-5-fluoro-2-morpholin-4-ylbenzoic acid] gave an EC50 of 5.4 nM. As for `O=C(O)c1cc(F)c(-c2cccc3c2OCN(C(=O)c2ccc(N4CCN(C5COC5)CC4)cc2Cl)C3)cc1N1CCOCC1` [Compound 1-70, 4-[3-[2-Chloro-4-[4-(oxetan-3-yl)piperazin-1-yl]benzoyl]-2,4-dihydro-1,3-benzoxazin-8-yl]-5-fluoro-2-morpholin-4-ylbenzoic acid], the figure is 4.7 nM; as for `COC1CN(c2cc(Cl)c(C(=O)N3COc4c(cccc4-c4cc(N5C6CCC5COC6)c(C(=O)O)cc4F)C3)cc2C)C1` [Compound 1-71, 4-[3-[2-Chloro-4-(3-methoxyazetidin-1-yl)-5-methylbenzoyl]-2,4-dihydro-1,3-benzoxazin-8-yl]-5-fluoro-2-(3-oxa-8-azabicyclo[3.2.1]octan-8-yl)benzoic acid], 6.1 nM; as for `COc1cc(C(=O)N2COc3c(cccc3-c3cc(N4CCOCC4)c(C(=O)O)cc3F)C2)c(Cl)cc1N1CCN(C)CC1` [Compound 1-72, 4-[3-[2-Chloro-5-methoxy-4-(4-methylpiperazin-1-yl)benzoyl]-2,4-dihydro-1,3-benzoxazin-8-yl]-5-fluoro-2-morpholin-4-ylbenzoic acid], 5.8 nM.

The compound `COc1cc(C(=O)N2COc3c(cccc3-c3cc(N4CCOCC4)c(C(=O)O)cc3F)C2)c(Cl)cc1N1CC2(COC2)C1` [Compound 1-73, 4-[3-[2-Chloro-5-methoxy-4-(2-oxa-6-azaspiro[3.3]heptan-6-yl)benzoyl]-2,4-dihydro-1,3-benzoxazin-8-yl]-5-fluoro-2-morpholin-4-ylbenzoic acid] had a half-maximal effective concentration (EC50) of 5.1 nM. With `COc1cc(C(=O)N2COc3c(cccc3-c3cc(N4C5CCC4COC5)c(C(=O)O)cc3F)C2)c(Cl)cc1N1CC(OC)C1` [Compound 1-74, 4-[3-[2-Chloro-5-methoxy-4-(3-methoxyazetidin-1-yl)benzoyl]-2,4-dihydro-1,3-benzoxazin-8-yl]-5-fluoro-2-(3-oxa-8-azabicyclo[3.2.1]octan-8-yl)benzoic acid] the figure was 2.7 nM; with `O=C(O)c1ccc(-c2cccc3c2C(=O)NN(C(=O)c2c(Cl)cc(N4CCN(C5CC5)CC4)cc2Cl)C3)cc1N1CCOCC1` [Compound 1-75, 4-[2-[2,6-Dichloro-4-(4-cyclopropylpiperazin-1-yl)benzoyl]-4-oxo-1,3-dihydrophthalazin-5-yl]-2-morpholin-4-ylbenzoic acid], 8 nM; with `CC(C)N1CCN(c2cc(Cl)c(C(=O)N3Cc4cccc(-c5ccc(C(=O)O)c(N6CCOCC6)c5)c4C(=O)N3)c(Cl)c2)CC1` [Compound 1-76, 4-[2-[2,6-Dichloro-4-(4-propan-2-ylpiperazin-1-yl)benzoyl]-4-oxo-1,3-dihydrophthalazin-5-yl]-2-morpholin-4-ylbenzoic acid], 5.3 nM. In turn, `O=C(O)c1ccc(-c2cccc3c2C(=O)NN(C(=O)c2c(Cl)cc(N4CCN(CC(F)(F)F)CC4)cc2Cl)C3)cc1N1CCOCC1` [Compound 1-77, 4-[2-[2,6-Dichloro-4-[4-(2,2,2-trifluoroethyl)piperazin-1-yl]benzoyl]-4-oxo-1,3-dihydrophthalazin-5-yl]-2-morpholin-4-ylbenzoic acid] returned an EC50 of 5.6 nM. With `CN1CCN(c2cc(Cl)c(C(=O)N3COc4c(-c5cc(N6CCOCC6)c(C(=O)O)cc5F)ccc(F)c4C3)c(Cl)c2)CC1` [Compound 1-78, 4-[3-[2,6-Dichloro-4-(4-methylpiperazin-1-yl)benzoyl]-5-fluoro-2,4-dihydro-1,3-benzoxazin-8-yl]-5-fluoro-2-morpholin-4-ylbenzoic acid] the figure was 15 nM. With `COCCN1CCN(c2cc(Cl)c(C(=O)N3COc4c(ccc(F)c4-c4ccc(C(=O)O)c(N5CCOCC5)c4)C3)c(Cl)c2)CC1` [Compound 1-79, 4-[3-[2,6-Dichloro-4-[4-(2-methoxyethyl)piperazin-1-yl]benzoyl]-7-fluoro-2,4-dihydro-1,3-benzoxazin-8-yl]-2-morpholin-4-ylbenzoic acid] the figure was 3.6 nM. `CN1CCN(c2cc(Cl)c(C(=O)N3COc4c(ccc(F)c4-c4cc(N5CCOCC5)c(C(=O)O)cc4F)C3)c(Cl)c2)CC1` [Compound 1-80, 4-[3-[2,6-Dichloro-4-(4-methylpiperazin-1-yl)benzoyl]-7-fluoro-2,4-dihydro-1,3-benzoxazin-8-yl]-5-fluoro-2-morpholin-4-ylbenzoic acid] registered an EC50 of 1.9 nM.

The compound `COCCN1CCN(c2cc(Cl)c(C(=O)N3COc4c(ccc(F)c4-c4cc(N5CCOCC5)c(C(=O)O)cc4F)C3)c(Cl)c2)CC1` [Compound 1-81, 4-[3-[2,6-Dichloro-4-[4-(2-methoxyethyl)piperazin-1-yl]benzoyl]-7-fluoro-2,4-dihydro-1,3-benzoxazin-8-yl]-5-fluoro-2-morpholin-4-ylbenzoic acid] displayed an EC50 of 5.1 nM. As for `O=C(O)c1cc(F)c(-c2c(F)ccc3c2OCN(C(=O)c2c(Cl)cc(N4CCN(C5COC5)CC4)cc2Cl)C3)cc1N1CCOCC1` [Compound 1-82, 4-[3-[2,6-Dichloro-4-[4-(oxetan-3-yl)piperazin-1-yl]benzoyl]-7-fluoro-2,4-dihydro-1,3-benzoxazin-8-yl]-5-fluoro-2-morpholin-4-ylbenzoic acid], the figure is 3.5 nM; as for `C[C@@H]1[C@@H](N2CCOCC2)CN1c1cc(Cl)c(C(=O)N2COc3c(cccc3-c3cc(N4C5CCC4COC5)c(C(=O)O)cc3F)C2)c(Cl)c1` [Compound 1-84, 4-[3-[2,6-Dichloro-4-[(2R,3S)-2-methyl-3-morpholin-4-ylazetidin-1-yl]benzoyl]-2,4-dihydro-1,3-benzoxazin-8-yl]-5-fluoro-2-(3-oxa-8-azabicyclo[3.2.1]octan-8-yl)benzoic acid], 2.4 nM; as for `C[C@@H]1[C@H](N2CCOCC2)CN1c1cc(Cl)c(C(=O)N2COc3c(cccc3-c3cc(N4C5CCC4COC5)c(C(=O)O)cc3F)C2)c(Cl)c1` [Compound 1-85, 4-[3-[2,6-Dichloro-4-[(2R,3R)-2-methyl-3-morpholin-4-ylazetidin-1-yl]benzoyl]-2,4-dihydro-1,3-benzoxazin-8-yl]-5-fluoro-2-(3-oxa-8-azabicyclo[3.2.1]octan-8-yl)benzoic acid], 0.9 nM. `COc1cc(-c2cc(Cl)c(C(=O)N3COc4c(cccc4-c4cc(N5C6CCC5COC6)c(C(=O)O)cc4F)C3)c(Cl)c2)ccn1` [Compound 2-1, 4-[3-[2,6-Dichloro-4-(2-methoxypyridin-4-yl)benzoyl]-2,4-dihydro-1,3-benzoxazin-8-yl]-5-fluoro-2-(3-oxa-8-azabicyclo[3.2.1]octan-8-yl)benzoic acid] gave an EC50 of 6.2 nM. With `CN1CC=C(c2cc(Cl)c(C(=O)N3COc4c(cccc4-c4cc(N5CCOCC5)c(C(=O)O)cc4F)C3)c(Cl)c2)CC1` [Compound 2-3, 4-[3-[2,6-Dichloro-4-(1-methyl-3,6-dihydro-2H-pyridin-4-yl)benzoyl]-2,4-dihydro-1,3-benzoxazin-8-yl]-5-fluoro-2-morpholin-4-ylbenzoic acid] the figure was 1.4 nM.
